For one assay, the system named is MG63. Description: Osteosarcoma cell growth inhibition (trypan blue count). It is filed as cell-based. The conditions noted are these: Homo sapiens, MG-63; 96 h of treatment; read-out: IC50 ± SD, cellular viability, MG63. An excerpt: (§1) The patient-derived human OS cell lines Saos-2, U-2OS, and MG-63 were obtained from ATCC (1992). The patient-derived OS cell lines IOR/OS9, IOR/OS20, and IOR/SARG were established and previously characterized at the Laboratory of Experimental Oncology of Rizzoli Orthopedic Institute. Cell lines were profiled for DNA copy number changes and DNA methylation status at approximately 27,000 CpG sites. The cell line PDX-OS#1-C4 was obtained from OS patient-derived xenograft (PDX) after 4 passages in the animal. All cell lines were tested for mycoplasma contamination (Mycoalert Mycoplasma Detection Kit, Lonza, Verviers, Belgium) before use and authenticated by short-tandem repeat polymerase chain reaction (STR PCR) analysis (last control December 2017) using PowerPlex ESX fast System kit (Promega, Madison, WI, USA). The following loci were verified: AMEL, D3S1358, TH01, D21S11, D18S51, D10S1248, D1S1656, D2S1338, D16S539, D22S1054, VWA, D8S1179, FGA, D2S441, D12S391, D19S433, and SE33. All cell lines were immediately amplified to constitute liquid nitrogen stocks and were never passaged for more than 1 month upon thawing. Cells were maintained in Iscove’s modified Dulbecco’s medium (IMDM) supplemented with 10% heat-inactivated FBS (Lonza, Verviers, Belgium), penicillin (20 U/mL), and streptomycin (100 μg/mL) (Sigma-Aldrich, Milan, Italy) in 37 °C humidified at 5% CO2.
(§2) To perform osteosarcoma cell growth inhibition experiments, 2 × 10^5 cells/well were plated, and MC3353 (0.1–30 μM) or DAC (0.5 μM) was added after 24 h. Cells were exposed for up to 96 h before being counted by Trypan blue vital cell count (Sigma-Aldrich, Milan, Italy). In parallel, the cells were treated with DMSO-containing medium as a control. The highest final concentration of DMSO in the medium was < 0.005%, and DMSO had no effect on cell growth.
(§3) IC50 values of compounds against cellular viability were determined by using nonlinear regression fitting curves with GraphPad Prism 8 or CalcuSyn software The t test used for statistical analyses was performed with GraphPad Prism 8. All the tests were one-tailed, and a p value < 0.05 was considered statistically significant.

For the next assay, the system named is IOR/OS9. Described as above. The format is cell-based. The conditions noted are these: Homo sapiens; 96 h of treatment; read-out: IC50 ± SD, cellular viability, IOR/OS9.
Source text: as §1, §2, §3

The subject of another assay is IOR/OS20. The assay is described as above. The format is cell-based. The conditions noted are these: Homo sapiens; 96 h of treatment; read-out: IC50 ± SD, cellular viability, IOR/OS20.
Source text: as §1, §2, §3

Another assay relates to Saos-2. The description is as above. It is filed as cell-based. The conditions noted are these: Homo sapiens, 96 h of treatment, read-out: IC50 ± SD, cellular viability, Saos-2.
Source text: as §1, §2, §3

A further assay deals with IOR/SARG. The assay is described as above. The conditions noted are these: Homo sapiens; 96 h of treatment; read-out: IC50 ± SD, cellular viability, IOR/SARG. The format is cell-based.
Source text: as §1, §2, §3

For a further assay, the system named is U-2OS. The assay is described as above. The conditions noted are these: Homo sapiens, U2OS; 96 h of treatment; read-out: IC50 ± SD, cellular viability, U-2OS. It is filed as cell-based.
Source text: as §1, §2, §3

The subject of another assay is PDX-OS#1-C4. The assay is described as above. The format is cell-based. The conditions noted are these: Homo sapiens; 96 h of treatment; read-out: IC50 ± SD, cellular viability, PDX-OS#1-C4.
Source text: as §1, §2, §3

For assay [1], the system named is E-cadherin mRNA in PC-3 cells. Kind of assay: qPCR of E-cadherin in PC-3. It is filed as cell-based, human. The conditions noted are these: MC3353 24 h; 5-AZA, DAC 5 days, effect from 1 to 5 μM. An excerpt: (§4) RNAs were extracted by ReliaPrep™ RNA Tissue Miniprep (Promega, Madison, WI, USA) and reverse transcribed with PrimeScript RT Master Mix (Takara, Kusatsu, Shiga, Japan). cDNAs were amplified by a qPCR reaction using GoTaq qPCR Master Mix (Promega) and analyzed with the oligonucleotide pairs specific for the target genes. Relative amounts, determined with the 2^(−ΔCt) method, were normalized with respect to the human housekeeping gene L32. The primers used are as follows: L32 (forward: 5′-[…]-3′, reverse: 5′-[…]-3′), E-cadherin (forward: 5′-[…]-3′, reverse: 5′-[…]-3′), and MMP2 (forward: 5′-[…]-3′, reverse: 5′-[…]-3′).
(§5) Prompted by these findings, we investigated the ability of MC3353 to modulate EMT pathway, using 5-AZA and DAC as reference drugs. […] The levels of mRNA transcripts of E-cadherin and matrix metalloproteinase-2 (MMP2) were determined. E-cadherin is involved in the maintenance of the epithelial identity and in the control of tumor invasiveness, whereas MMP2, through degradation of type IV collagen, the most abundant component of the basement membrane, controls an essential step for metastatic progression of most cancers as well as for induction of angiogenesis.
In general terms: In qPCR the cycle at which signal appears reflects the starting amount.

The test system of assay [2] is E-cadherin mRNA in HCT116 cells. Description: qPCR of E-cadherin in HCT116. It is filed as cell-based, human. The conditions noted are these: MC3353 0.1 μM 24 h; 5-AZA, DAC every 2 days for 5 days at 0.1, 1, 5 μM.
Source text: as §4, §5

The next assay has as its system MMP2 mRNA in PC-3 cells. Kind of assay: qPCR of MMP2 in PC-3. It is filed as cell-based, human. The conditions noted are these: MC3353 0.1 and 1 μM 24 h; 5-AZA, DAC 5 days, also at 0.1 to 1 μM.
Source text: as §4, §5

For assay [3], the system named is double DNMT knockout (DKO) HCT116 cells. Kind of assay: MTT proliferation assay DKO HCT116. It is filed as cell-based, human. The conditions noted are these: 24 and 48 h; MC3353 at 0.5 μM after 48 h; DAC, 5-AZA up to highest dose. How it is done: DKO HCT116 (ATCC, VA, USA) cells were propagated in Dulbecco’s modified Eagle medium (DMEM) (Euroclone, Milan, Italy) with 10% fetal bovine serum (FBS; Euroclone, Milan, Italy), 2 mM L-glutamine (Euroclone, Milan, Italy) and antibiotics (100 U/mL penicillin, 100 µg/mL streptomycin) (Euroclone, Milan, Italy).
(§6) The MTT [3-(4,5-dimethylthiazol-2-yl)-2,5-diphenyltetrazolium bromide] (Sigma-Aldrich, Milan, Italy) assay was used to determine the proliferation of HCT116 clone and DKO HCT116 cells after treatment with MC3353, 5-AZA, and DAC. 5 × 10^4 cells/well for both cell lines were plated in 24-well plate and treated, in duplicate, with compounds at several concentrations for 24 and 48 h of induction. After treatments, MTT solution was added for 3 h at 0.5 mg/mL, the purple formazan crystals were dissolved in DMSO (Sigma-Aldrich, Milan, Italy), and the absorbance was read at a wavelength of 570 nm with reader TECAN M-200.

Another assay concerns HCT116 cells. Kind of assay: MTT proliferation assay HCT116. The conditions noted are these: 24 and 48 h; MC3353 from 0.5 μM after 48 h; DAC at 10 μM. It is filed as cell-based, human. The method, then: as §6

SMILES strings stand for the structures.

For the compound `Nc1ncn([C@H]2C[C@H](O)[C@@H](CO)O2)c(=O)n1` [DAC, 5-aza-2′-deoxycytidine, reference compound], the IC50 came to 200 ± 200 nM with MG63; 5700 ± 3400 nM in the assay on IOR/OS9; 9200 ± 2200 nM with IOR/OS20; 1000 ± 900 nM in the assay with Saos-2; 5400 ± 1000 nM in the assay on IOR/SARG; 1100 ± 900 nM with U-2OS. Besides, the IC50 in the assay on PDX-OS#1-C4 stood at 700 ± 600 nM. For the same compound, the “E-cadherin mRNA expression, PC-3” value in [1] is “able to induce E-cadherin expression”. In addition, the “E-cadherin mRNA expression, HCT116” value in assay [2] is “able to induce E-cadherin expression”. For the same compound, the “MMP2 mRNA expression, PC-3” value in the assay with MMP2 mRNA in PC-3 cells was “increased MMP2 level”. For the same compound, the “effect on DKO HCT116 proliferation (MTT)” value in assay [3] is listed as “No evidence of cytotoxicity”. The “effect on HCT116 proliferation (MTT)” value in the assay with HCT116 cells is recorded as “modest proliferation inhibition”.
On to `O=C(Nc1ccc(NC(=O)c2ccc(Nc3ccnc4ccccc34)cc2)cc1)OCc1ccccc1` [MC3353, Benzyl (4-(4-(quinolin-4-ylamino)benzamido)phenyl)carbamate], for which the IC50 is 2400 ± 1700 nM in the assay with MG63; 2000 ± 100 nM with IOR/OS9; 1500 ± 100 nM with IOR/OS20; 1100 ± 300 nM in the assay on Saos-2; 1500 ± 100 nM in the assay on IOR/SARG; 1400 ± 100 nM in the assay with U-2OS. For the same compound, the IC50 with PDX-OS#1-C4 worked out at 2000 ± 100 nM. For the same compound, the “E-cadherin mRNA expression, PC-3” value in assay [1] is given as “this effect was observed only at 1 μM dose”. Besides, in [2], the “E-cadherin mRNA expression, HCT116” value was “induced E-cadherin mRNA expression transcripts”. In addition, in the assay with MMP2 mRNA in PC-3 cells, the “MMP2 mRNA expression, PC-3” value is “strongly downregulated”. For the same compound, the “effect on DKO HCT116 proliferation (MTT)” value in assay [3] is recorded as “markedly less efficient to impair cell proliferation”. In addition, the “effect on HCT116 proliferation (MTT)” value in the assay on HCT116 cells is reported as “markedly decreased HCT116 proliferation”.
